Structures can show the parent of a compound that is named as a salt.
Legend:
[1] = tested on: Monochoria vaginalis; assay: Example 22 field trial, 2-leaf stage: herbicidal effect; format: in vivo; details: 250 g of ai/ha; 14 days after application
Procedure: (§1) The herbicidal efficacy of the active compounds or active compound mixtures was scored visually using the treated plots in comparison to untreated control plots. The damage and development of all above-ground parts of the plants were recorded. Scoring was carried out using a percentage scale (100% effect=all plants killed; 50% effect=50% of the plants and the green parts of the plants killed; 0% effect=no noticeable effect=like control plot. The scores of in each case 4 plots were averaged.
(§2) If the observed activity values already exceed the formal sum of the values for the trials with the individual applications, they also exceed the expected value according to Colby which is calculated using the following formula and which is likewise considered to be an indication of synergism (cf. S. R. Colby; in Weeds 15 (1967) p. 20 to 22):
(§3) Crop plants were grown outdoors on plots under natural outdoor conditions, and seeds or rhizome pieces of typical harmful plants were laid out or the natural weed growth was utilized. Treatment with the compositions according to the invention was carried out after the harmful plants had emerged and the crop plants were, generally, at the 2- to 4-leaf stage; in some cases (as stated), application of individual active compounds or active compound combinations was carried out pre-emergence (cf. Section 1) or post-emergence (cf. Section 2) or as a sequential treatment partly pre-emergence and/or post-emergence. After the application, for example 2, 4, 6 and 8 weeks after the application, the effect of the preparations was scored visually by comparison with untreated controls (cf. scoring in Section 1). In the field trial as well, the compositions according to the invention have synergistic herbicidal activity against a broad spectrum of economically important weed grasses and broad-leaved weeds. […] Moreover, the effects in essential phases of the scoring period were above the expected values according to Colby, also indicating synergism. In contrast, the crop plants were, as a consequence of the treatments with the herbicidal compositions, damaged only to a small degree, if at all.

[2] = tested on: Oryza sativa (rice); assay: Example 22 field trial, 2-leaf stage: crop damage; format: in vivo; details: 250 g of ai/ha; 14 days after application
Procedure: as §1, §2, §3

[3] = tested on: Ipomoea hederacea; assay: Example 17 field trial, pre-emergence: herbicidal effect; format: in vivo; details: 16 days after application
Description: (§4) Seeds or rhizome pieces of monocotyledonous and dicotyledonous weed plants are placed in sandy loam soil in pots and covered with soil. The compositions, formulated in the form of concentrated aqueous solutions, wettable powders or emulsion concentrates, are then applied to the surface of the soil cover as aqueous solution, suspension or emulsion at an application rate of 600 to 800 l of water/ha (converted), in various dosages. After the treatment, the pots are placed in a greenhouse and kept under good growth conditions for the weeds. After the test plants have emerged, the damage to the plants or the negative effects on the emergence is scored visually after a test period of 3 to 4 weeks by comparison with untreated controls. As shown by the test results, the compositions according to the invention have good herbicidal pre-emergence activity against a broad spectrum of weed grasses and broad-leaved weeds.
as §1, §2, §3

[4] = tested on: Setaria faberi; assay: as above; format: in vivo; details: 16 days after application
Description: as §4, §1, §2, §3

[5] = tested on: Zea mays (corn); assay: Example 17 field trial, pre-emergence: crop damage; format: in vivo; details: in vivo
Description: as §4
The herbicidal efficacy of the active compounds or active compound mixtures was scored visually using the treated plots in comparison to untreated control plots. The damage and development of all above-ground parts of the plants were recorded. […]
as §2
Crop plants were grown outdoors on plots under natural outdoor conditions, and seeds or rhizome pieces of typical harmful plants were laid out or the natural weed growth was utilized. […] After the application, for example 2, 4, 6 and 8 weeks after the application, the effect of the preparations was scored visually by comparison with untreated controls (cf. scoring in Section 1). […]

[6] = tested on: Lamium amolexicaule; assay: Example 15 field trial, 2- to 4-leaf stage: herbicidal effect; format: in vivo; details: 28 days after application
Procedure: as §1, §2, §3

[7] = tested on: winter wheat; assay: Example 15 field trial, 2- to 4-leaf stage: crop damage; format: in vivo, Triticum aestivum; details: 28 days after application
Procedure: as §1, §2, §3

[8] = tested on: Galium aparine; assay: Example 10 pre-emergence application, fall: herbicidal effect; format: in vivo; details: 250 g of ai/ha; 169 days after application
Description: as §4, §1, §2, §3

[9] = tested on: winter wheat; assay: Example 10 pre-emergence application, fall: crop damage; format: in vivo, Triticum aestivum; details: 250 g of ai/ha; 169 days after application
Description: as §4, §1, §2, §3

[10] = tested on: Elusine indica; assay: Example 18 field trial, 3-leaf stage: herbicidal effect; format: in vivo; details: 31 days after application
Procedure: as §1, §2
as §3, with “In contrast, the crop plants were, as a consequence of the treatments with the herbicidal compositions, damaged only to a small degree, if at all.” left out

[11] = tested on: corn which is glufosinate-ammonium-resistant; assay: Example 18 field trial, 3-leaf stage: crop damage; format: in vivo, Corn (LL); details: 31 days after application
Procedure: The damage and development of all above-ground parts of the plants were recorded.
Crop plants were grown outdoors on plots under natural outdoor conditions, and seeds or rhizome pieces of typical harmful plants were laid out or the natural weed growth was utilized.

[12] = tested on: Capsella bursa-pastoris; assay: Example 11 field trial, 2- to 4-leaf stage: herbicidal effect; format: in vivo; details: 28 days after application
Procedure: as §1, §2, §3

[13] = tested on: winter wheat; assay: Example 11 field trial, 2- to 4-leaf stage: crop damage; format: in vivo, Triticum aestivum; details: 28 days after application
Procedure: as §1, §2, §3

[14] = tested on: Lamium purpurea; assay: Example 12 field trial, 2- to 4-leaf stage: herbicidal effect; format: in vivo; details: 42 days after application
Procedure: as §1, §2, §3

[15] = tested on: winter wheat; assay: Example 12 field trial, 2- to 4-leaf stage: crop damage; format: in vivo, Triticum aestivum
Procedure: as §1, §2, §3

[16] = tested on: Matricaria chamomilla; assay: Example 14 field trial, 2- to 4-leaf stage: herbicidal effect; format: in vivo; details: 28 days after application
Procedure: as §1, §2, §3

[17] = tested on: Sorghum verticilliflorum; assay: Example 13 field trial, 2- to 4-leaf stage: herbicidal effect; format: in vivo; details: 12.5 g of ai/ha; 17 days after application
Procedure: as §1, §2, §3

[18] = tested on: summer wheat; assay: Example 13 field trial, 2- to 4-leaf stage: crop damage; format: in vivo, Triticum aestivum; details: in vivo
Procedure: as §1, §2, §3

COP(=S)(OC)SCC(=O)N(c1ccc(Cl)cc1)C(C)(C)C [(B1.6.5), anilofos, reference compound]
herbicidal effect, MOOVA [1]: 95% | damage, ORYSA [2]: 5%

CS(=O)(=O)c1cc(C(F)(F)F)ccc1C(=O)c1cnoc1C1CC1 [(B3.4.5), isoxaflutole, reference compound]
herbicidal effect, IPOHE ([3]; 105 g of ai/ha): 87% | herbicidal effect, IPOHE ([3]; 210 g of ai/ha): 85% | herbicidal effect, SETFA ([4]; 105 g of ai/ha): 90% | herbicidal effect, SETFA ([4]; 210 g of ai/ha): 93% | damage, ZEAMA [5]: 0%

COc1cc(OC)nc(NC(=O)NS(=O)(=O)N(C)S(C)(=O)=O)n1 [(B2.1.4), amidosulfuron, reference compound]
herbicidal effect, LAMAM ([6]; 12.5 g of ai/ha): 10% | herbicidal effect, LAMAM ([6]; 25 g of ai/ha): 25% | damage, TRZAW ([7]; 12.5 g of ai/ha): 0% | damage, TRZAW ([7]; 25 g of ai/ha): 0%

CNC1=C(c2cccc(C(F)(F)F)c2)C(=O)C(c2ccccc2)O1 (stereo not shown) [(B3.4.4), flurtamone]
herbicidal effect, GALAP [8]: 50% | damage, TRZAW [9]: 2%

CP(=O)(O)CCC(N)C(=O)O (stereo not shown) [(B4.1.2), glufosinate monoammonium salt]
herbicidal effect, ELEIN ([10]; 300 g of ai/ha): 55% | herbicidal effect, ELEIN ([10]; 600 g of ai/ha): 78% | damage, Corn (LL) ([11]; 300 g of ai/ha): 0% | damage, Corn (LL) ([11]; 600 g of ai/ha): 0%

O=C(Nc1ccc(F)cc1F)c1cccnc1Oc1cccc(C(F)(F)F)c1 [(B3.4.2), diflufenican, reference compound]
herbicidal effect, CAPPBP ([12]; 75 g of ai/ha): 45% | herbicidal effect, CAPPBP ([12]; 150 g of ai/ha): 67% | damage, TRZAW ([13]; 75 g of ai/ha): 0% | damage, TRZAW ([13]; 150 g of ai/ha): 0%

COc1ncc(F)c2nc(S(=O)(=O)Nc3c(F)cccc3F)nn12 [(B2.5.2), florasulam]
herbicidal effect, LAMPU ([14]; 3.7 g of ai/ha): 35% | herbicidal effect, LAMPU ([14]; 7.5 g of ai/ha): 35% | herbicidal effect, LAMPU ([14]; 15 g of ai/ha): 40% | damage, TRZAW ([15]; 3.7 g of ai/ha, 42 days after application): 3% | damage, TRZAW ([15]; 7.5 g of ai/ha, 42 days after application): 3% | damage, TRZAW ([15]; 15 g of ai/ha, 42 days after application): 6%

N#Cc1cc(I)c(O)c(I)c1 [(B2.3.2), ioxynil]
herbicidal effect, MATCH ([16]; 187 g of ai/ha): 30% | herbicidal effect, MATCH ([16]; 375 g of ai/ha): 45%

COC(=O)c1ccccc1S(=O)(=O)NC(=O)N(C)c1nc(C)nc(OC)n1 [(B2.1.1), tribenuron-methyl]
herbicidal effect, SORVE [17]: 0% | damage, TRZAS [18]: 0%

CCOC(=O)/C(Cl)=C/c1cc(N2C(=O)C3=C(CCCC3)C2=O)ccc1Cl [(B2.6.8), cinidon-ethyl]
herbicidal effect, LAMPU ([14]; 25 g of ai/ha): 60% | herbicidal effect, LAMPU ([14]; 50 g of ai/ha): 60% | damage, TRZAW ([15]; in vivo): 3%

— patent US20040171489A1, “Synergistic active compound combinations for controlling harmful plants” (priority 1998, published 2004)
